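Values below derive from 48-hour exposures of cells grown in 96-well plates, with endpoints linearly interpolated between the two concentrations bracketing the appropriate inhibition level. GI50 marks 50% less growth. Definition used: TGI = concentration required for complete inhibition of growth.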
Tests used:
Assay in all cases: DTP human tumour cell line panel, 48 h
MOLT-4 leukemia = system: MOLT-4 leukemia
NCI-H460 lung = system: NCI-H460 lung
TK-10 renal = system: TK-10 renal
HT29 colon = system: HT29 colon
RXF 393 renal = system: RXF 393 renal
A498 renal = system: A498 renal
SR leukemia = system: SR leukemia
KM12 colon = system: KM12 colon
DU-145 prostate = system: DU-145 prostate
SK-MEL-28 melanoma = system: SK-MEL-28 melanoma

| Structure (SMILES) | TGI (MOLT-4 leukemia) [µM] | TGI (NCI-H460 lung) [µM] | TGI (TK-10 renal) [µM] | TGI (HT29 colon) [µM] | TGI (RXF 393 renal) [µM] | TGI (A498 renal) [µM] | TGI (SR leukemia) [µM] | TGI (KM12 colon) [µM] | TGI (DU-145 prostate) [µM] | TGI (SK-MEL-28 melanoma) [µM] | GI50 (MOLT-4 leukemia) [µM] | GI50 (NCI-H460 lung) [µM] | GI50 (TK-10 renal) [µM] | GI50 (HT29 colon) [µM] | GI50 (RXF 393 renal) [µM] | GI50 (A498 renal) [µM] | GI50 (SR leukemia) [µM] | GI50 (KM12 colon) [µM] | GI50 (DU-145 prostate) [µM] | GI50 (SK-MEL-28 melanoma) [µM] |
| --- | --- | --- | --- | --- | --- | --- | --- | --- | --- | --- | --- | --- | --- | --- | --- | --- | --- | --- | --- | --- |
| O=C(O)c1ccc2c(c1C(=O)O)C(=O)OC2(c1ccc(O)cc1)c1ccc(O)cc1 | > 100 | > 100 | > 100 | > 100 | > 100 | > 100 | > 100 | > 100 | > 100 | > 100 | – | – | – | – | – | – | – | – | – | – |
| CCN1C(=O)N(c2ccccc2)C2NC(=S)N(/N=C/C=C/c3ccccc3OC)C21 (centres undefined) | > 100 | > 36.2 | > 100 | > 100 | > 100 | 0.653 | > 48.5 | > 36.1 | > 34.4 | > 100 | 0.128 | 0.111 | 23.3 | 0.111 | 0.916 | 0.0311 | 0.086 | 0.101 | 0.115 | 4.73 |
| Cn1ccc2c3c(Oc4ccc(NC(N)=O)cc4)ccnc3ccc21 | > 100 | > 100 | > 100 | > 100 | > 100 | > 100 | > 100 | > 100 | > 100 | > 100 | > 100 | > 100 | > 100 | > 100 | > 100 | > 100 | > 100 | > 100 | > 100 | > 100 |
| Nc1c(C(=O)Nc2cccc(C(F)(F)F)c2)sc2nc3c(cc12)CCCCC3 | 51.6 | 11.4 | 4.47 | > 100 | 4.86 | 7.08 | 21.7 | > 100 | 28.4 | 23.6 | 15 | 2.61 | 1.83 | 7.06 | 1.84 | 1.53 | 4.03 | 5.33 | 4.81 | 3.73 |
| CCOC(=O)C1=C(C)N(c2ccc(F)cc2F)[C@]2(C#N)C(O)=C(Cl)C(Cl)=C(O)[C@]12C#N | > 100 | > 100 | > 100 | > 100 | > 100 | > 100 | 95.9 | > 100 | > 100 | > 100 | > 100 | > 100 | > 100 | > 100 | > 100 | > 100 | 34.5 | > 100 | > 100 | > 100 |
| COc1ccc2nc3cc(Cl)ccc3c(NCCNCC(C)O)c2c1 (centres undefined) | 11.1 | 2.99 | 8.28 | 3.03 | 3.37 | 2.84 | 8.04 | 8.74 | 8.57 | 4.02 | 0.512 | 0.668 | 2.85 | 0.691 | 1.61 | 1.28 | 1.09 | 2.02 | 2.12 | 2.06 |
| COc1ccc(CCN=C2NC(=O)/C(=C/c3ccc4ncccc4c3)S2)cc1 | > 25 | > 25 | > 25 | > 25 | > 25 | > 25 | > 25 | > 25 | > 25 | > 25 | > 25 | > 25 | > 25 | > 25 | > 25 | > 18.3 | 12.6 | > 25 | > 25 | > 25 |
| O=S(=O)(c1ccccc1)N1CCN(S(=O)(=O)c2ccccc2)c2ccccc21 | – | > 100 | > 100 | > 100 | > 100 | > 100 | > 100 | > 100 | > 100 | > 100 | – | – | – | – | – | – | – | – | – | – |
| CC(C)[C@@H]1C=C2CC[C@H]3[C@](C)(CN)CCC[C@]3(C)[C@H]2CC1 | 6.03 | 3.34 | 25.3 | 3.64 | 3.56 | 15 | 12.4 | 3.23 | 4.08 | 30.7 | 2.35 | 1.8 | 12 | 1.84 | 1.77 | 2.13 | 2.78 | 1.76 | 2.05 | 16.9 |
| Nc1cc(NN=C(c2ccc(O)cc2)c2ccc(O)cc2)c([N+](=O)[O-])cc1[N+](=O)[O-] | 7.69 | 3.47 | 6.98 | 8.19 | 3.15 | 3.55 | 7.48 | 2.85 | 2.99 | 3.56 | 2.76 | 1.79 | 2.22 | 2.63 | 1.59 | 1.69 | 2.03 | 1.52 | 1.64 | 1.6 |
| Nc1n[nH]c2cc(F)c([C@@H]3Nc4ccc5[nH]ncc5c4[C@H]4C5CCC(C5)[C@@H]34)cc12 (some centres undefined) | > 50 | 5.86 | > 50 | > 50 | 2.52 | 0.288 | > 50 | 4.01 | 8.75 | 21.9 | 0.207 | 0.177 | 3.46 | 0.182 | 0.124 | 0.0787 | 0.125 | 0.18 | 0.205 | 1.37 |
| COc1ccc(/C=N/NC(=O)c2cccc3cc[nH]c23)cc1O | > 66.2 | > 68.3 | > 100 | > 100 | > 100 | 86.1 | > 41.2 | > 100 | > 46.5 | > 100 | 2.84 | 2.03 | 14.4 | 4.32 | 5.83 | 4.05 | 0.349 | 0.883 | 3 | 6.46 |

Source: PubChem BioAssay (NCI)
